Results as given in patent US6583171B1, “Antineoplastic agents” (Welichem Biotech Inc., priority 1996, dated 2003).
Like-named read-outs stand apart in the source and are kept apart here. Blank lines part the entries; values can stand above or below the compound they belong to.

Assays:
[1] = test system: Human Lung Cancer (H460); assay: Anticancer activity of xenorxide derivatives (Example 8), H460; format: cell-based; conditions: NCI-H460; H460 human lung cancer cells
Description: (§1) Anticancer Activity of Xenorxide Derivatives Against Human Lung Cancer (H460) and Breast Cancer (LCC6)

[2] = test system: Breast Cancer (LCC6); assay: Anticancer activity of xenorxide derivatives (Example 8), LCC6; format: cell-based; conditions: Homo sapiens, LCC-6; LCC6 breast cancer cells
Description: as §1

[3] = test system: HT29; assay: NCI sulforhodamine B (SRB) anticancer assay, HT29; format: cell-based
Description: (§2) The method normally used by the American National Cancer Institute (NCI) for the effectiveness of a compound is based on the LC50. The LC50 is the compound concentration at which half of the cancer cell population is killed. The assay is commonly used by those skilled in the art and are accepted as indicative of anticancer activity in mammals. The test animal cancer cells are available from ATCC, NCI and other organizations. The anticancer activities of compounds of the present invention have been determined in cell cultures of various human cancer cells (see table below) using the standard NCI method with slight modifications. The specifications of the procedure was described by Skehan et al. (1990). Briefly, cancer cells were grown in RPMI-1640 medium with glutamine and 10% fetal calf serum, and were harvested from exponential-phase maintenance cultures. The harvested cells were counted and dispensed into replicate 96-well culture plates in 180 μl volumes for each well with a cell density of up to 2,500 cells/well. The cells were allowed to settle for about 4 hours at 37° C. Then 20 μl of medium containing the test compound was added into each well, resulting in a suitable final test compound concentration. The test plates were then incubated at 37° C. The test was terminated after incubation by adding to each well 50 1 of cold 50% trichloroacetic acid. The cells were fixed for an hour at 4° C. and then washed five times with tap water. The washed plates were air-dried and stained for 30 minutes with 0.4% (wt/vol) sulforhodamine B (SRB) which was dissolved in 1% acetic acid. At the end of the staining period, the SRB was removed and plates were quickly rinsed five times with 1% acetic acid. After being rinsed, the plates were air-dried and 100 μl of 10 mM tris base (pH 10.5) were added to each well to dissolve the dye bound to the cells. The plates were placed on a gyratory shaker and shaken (100 rpm) for 10 minutes. Finally, the plates were read in a microtiter plate reader at 570 nm.

[4] = test system: MCF-7; assay: NCI sulforhodamine B (SRB) anticancer assay, MCF-7; format: cell-based
Description: as §2

[5] = test system: Hela; assay: NCI sulforhodamine B (SRB) anticancer assay, Hela; format: cell-based
Description: as §2

[6] = test system: NCI-H460; assay: NCI sulforhodamine B (SRB) anticancer assay, NCI-H460; format: cell-based; conditions: NCI-H460 cells, read-out: LC50 (the source's name)
Description: as §2

[7] = test system: Sk-Mel-28; assay: NCI sulforhodamine B (SRB) anticancer assay, Sk-Mel-28; format: cell-based; conditions: Sk-Mel-28 cells, read-out: LC50 (the source's name)
Description: as §2

[8] = test system: DU-145 (Prostate cancer); assay: NCI sulforhodamine B (SRB) anticancer assay, DU-145; format: cell-based; conditions: DU-145 (Prostate cancer) cells, read-out: LC50 (the source's name)
Description: as §2

[9] = test system: UO-31 (Renal cancer); assay: NCI sulforhodamine B (SRB) anticancer assay, UO-31; format: cell-based; conditions: UO-31 (Renal cancer) cells, read-out: LC50 (the source's name)
Description: as §2

[10] = test system: SF-295 (CNS cancer); assay: NCI sulforhodamine B (SRB) anticancer assay, SF-295; format: cell-based; conditions: SF-295 (CNS cancer) cells, read-out: LC50 (the source's name)
Description: as §2

[11] = test system: P388; assay: NCI sulforhodamine B (SRB) anticancer assay, P388; format: cell-based; conditions: P388 cells; read-out: LC50 (the source's name)
Description: as §2, with “The test was terminated after incubation by adding to each well 50 1 of cold 50% trichloroacetic acid. The cells were fixed for an hour at 4° C. and then washed five times with tap water. The washed plates were air-dried and stained for 30 minutes with 0.4% (wt/vol) sulforhodamine B (SRB) which was dissolved in 1% acetic acid. At the end of the staining period, the SRB was removed and plates were quickly rinsed five times with 1% acetic acid. After being rinsed, the plates were air-dried and 100 μl of 10 mM tris base (pH 10.5) were added to each well to dissolve the dye bound to the cells. The plates were placed on a gyratory shaker and shaken (100 rpm) for 10 minutes.” left out

[12] = test system: LNCap; assay: NCI sulforhodamine B (SRB) anticancer assay, LNCap; format: cell-based, human; conditions: LNCap cells; read-out: LC50 (the source's name)
Description: as §2, with “The test was terminated after incubation by adding to each well 50 1 of cold 50% trichloroacetic acid. The cells were fixed for an hour at 4° C. and then washed five times with tap water. The washed plates were air-dried and stained for 30 minutes with 0.4% (wt/vol) sulforhodamine B (SRB) which was dissolved in 1% acetic acid. At the end of the staining period, the SRB was removed and plates were quickly rinsed five times with 1% acetic acid. After being rinsed, the plates were air-dried and 100 μl of 10 mM tris base (pH 10.5) were added to each well to dissolve the dye bound to the cells. The plates were placed on a gyratory shaker and shaken (100 rpm) for 10 minutes.” left out

[13] = HT29 cells, concentration at which half of the cancer cell population is killed, read-out: LC50 (the source's name)
[14] = MCF-7 cells, read-out: LC50 (the source's name)
[15] = Hela cells, read-out: LC50 (the source's name)

- IC50 [1]: 2130 nM
- IC50 [2]: 6380 nM
SMILES: COc1ccc(N2C(=O)C(NC(=O)C(F)(F)F)=C3C2=CSS3(=O)=O)cc1 [BLI-041-1]

- IC50 [1]: 230 nM
- IC50 [2]: 1630 nM
SMILES: COc1ccc(N2C(=O)C(NC(C)=O)=C3C2=CSS3(=O)=O)cc1 [BLI-042-1]

- IC50 [1]: 1980 nM
- IC50 [2]: 1970 nM
SMILES: O=C(NC1=C2C(=CSS2(=O)=O)N(Cc2ccccc2)C1=O)c1ccccc1 [CSL-29]

- IC50 [1]: 560 nM
- IC50 [2]: 670 nM
SMILES: CC(=O)NC1=C2C(=CSS2(=O)=O)N(c2ccccc2)C1=O [CSL-30]

SMILES: CCCCCC(=O)Nc1c2[s+]([O-])scc-2n(C)c1=O (stereo not drawn) [XM1]
- CC50 [3, 13]: 470 nM
- CC50 [4, 14]: 470 nM
- CC50 [5, 15]: 800 nM

SMILES: CC(C)CCCC(=O)Nc1c2[s+]([O-])scc-2n(C)c1=O (stereo not drawn) [XM2]
- CC50 [3, 13]: 110 nM
- CC50 [4, 14]: 550 nM
- CC50 [5, 15]: 210 nM

SMILES: CC(=O)Nc1c2sscc-2n(C)c1=O [XN0, 6-(Acetamido)-4-methyl-4,5dihydro-1.2-dithiolo[4,3-b]pyrrol-5-one]
- CC50 ([3]; Homo sapiens, HT-29, read-out: LC50): 130 nM
- CC50 ([4]; Homo sapiens, MCF7, read-out: LC50): 350 nM
- CC50 ([5]; Homo sapiens, HeLa, read-out: LC50): 310 nM

SMILES: CCCCCC(=O)Nc1c2sscc-2n(C)c1=O [XN1, 6-(Hexanamido)-4-methyl-4,5-dihydro-1.2-dithiolo[4,3-b]pyrrol-5-one]
- CC50 [3, 13]: 110 nM
- CC50 [4, 14]: 560 nM
- CC50 [5, 15]: 460 nM

SMILES: CC(C)CCCC(=O)Nc1c2sscc-2[nH]c1=O [XN3, 6(5′-Methylhexanamido)-4,5-dihydro1,2-dithiolo[4,3-b]pyrrol-5one]
- CC50 ([3]; Homo sapiens, HT-29, HT29 cells, concentration at which half of the cancer cell population is killed, read-out: LC50 (the source's name)): 110 nM
- CC50 ([4]; Homo sapiens, MCF7, MCF-7 cells, read-out: LC50 (the source's name)): 390 nM
- CC50 ([5]; Homo sapiens, Hela cells, read-out: LC50 (the source's name)): 320 nM
- CC50 ([6]; Homo sapiens): 30 nM
- CC50 ([7]; Homo sapiens): 240 nM
- CC50 ([8]; Homo sapiens): 140 nM
- CC50 ([9]; Homo sapiens): 180 nM
- CC50 ([10]; Homo sapiens): 40 nM

SMILES: CCCCCC(=O)NC1=C2C(=CSS2(=O)=O)N(C)C1=O [XO1]
- CC50 [3, 13]: 220 nM
- CC50 [4, 14]: 890 nM
- CC50 [5, 15]: 160 nM
- CC50 [11]: 660 nM
- CC50 [6]: 280 nM
- CC50 [7]: 190 nM
- CC50 [12]: 540 nM
- CC50 [8]: 1800 nM
- CC50 [9]: 1850 nM
- CC50 [10]: 1580 nM

SMILES: CC(C)CCCC(=O)NC1=C2C(=CSS2(=O)=O)N(C)C1=O [XO2]
- CC50 [3, 13]: 850 nM
- CC50 [4, 14]: 950 nM
- CC50 [5, 15]: 130 nM
- CC50 [11]: 280 nM
- CC50 [6]: 220 nM
- CC50 [7]: 730 nM
- CC50 [12]: 190 nM
- CC50 [8]: 1600 nM
- CC50 [9]: 6000 nM
- CC50 [10]: 2120 nM
